Data: patent US20250163057A1, “DCN-1 MODULATING COMPOUNDS AND METHODS OF USE THEREOF” (Cellarity, Inc., priority 2023, published 2025)

Experiments:
[1] = tested on: fetal hemoglobin protein (HbF) in human erythroid progenitor cells; assay: Humanized mouse model: HbF protein in bone marrow by AlphaLISA; assay type: in vivo, NBSGW mice reconstituted with human CD34+ cells; conditions: for HbF protein levels (AlphaLISA) normalized for % GlyA+ cells: FIG. 10B, most treatment groups
Text: (§1) Results: To evaluate induction of target cell activity in the bone marrow, a humanized mouse model was developed. This model entails the reconstitution of human hematopoietic progenitor cells within the bone marrow of immunodeficient nonirradiated NOD.Cg-KitW-41J Tyr^+ Prkdc^scid Il2rg^tmlwjl/ThomJ (NBSGW) strain recipient mice. These mice are competent to engraft and differentiate human erythroid progenitor cells that express human adult hemoglobin mRNA and protein subunits within bone marrow.
(§2) Based on these exposure results, humanized mice were treated with either the clinical standard of care compound, hydroxyurea (50 mg/kg; bid), or I-73, at 25 and 100 mg/kg (bid), by oral gavage over a three-week period. At the end of the treatment period, bone marrow was harvested for flow cytometry, as well as for assessment of HbF protein and fetal hemoglobin (HBG1) mRNA levels. Levels of both HbF protein and HBG1 mRNA were normalized to the percentage of human erythroid progenitor cells in the bone marrow of each mouse as determined by immunofluorescence staining for human Glycophorin A cell membrane expression. […] In addition, relative levels of fetal hemoglobin to those of potentially sickling-prone adult hemoglobin (HBB) was assessed.
(§3) Female, 6-week-old NOD.Cg-Kit^W-41J Tyr^+ Prkdc^scid Il2rg^tm1Wjl/ThomJ (NBSGW) mice (Jackson Laboratory strain #[…]) were used for these studies. The mice were acclimatized to laboratory conditions for 5 days prior to inoculation.
(§4) GCSF-mobilized human CD34+ cells were removed from liquid nitrogen storage, thawed in a 37° C. water bath and transferred quickly into a 50 mL conical tube. Cryovial was rinsed once with thaw buffer, 0.1% BSA in phosphate buffered saline (PBS), and buffer was transferred and combined with the original contents in the 50 mL conical tube. Next, doubling volumes of thaw buffer was added to the conical and gently swirled for ˜30 seconds to one minute until the volume in the conical was 32 mL. Cells and buffer were centrifuged at 300G for 8 minutes, and the supernatants were aspirated. Cells were counted by resuspending in 1 mL of thawing buffer per million of cells to a target concentration range of 0.5 to 2M/ml and counting with AOPI (1:1) on a luna cell counter to confirm the concentration of cells/mL. The cell concentration was adjusted to 3×10^6 cells/ml. For each mouse, 300 thousand cells in 0.1 ml were injected into the tail vein with a 25-gauge needle.
(§5) On day 56 after human cell adoptive transfer, whole blood was collected from each mouse by submandibular bleed and a 100 μL sample of EDTA whole blood was transferred to a 2 ml tube containing 1.8 mL ACK Lysing Buffer at room temperature (RT), and then inverted to mix. Samples were incubated at RT for 15 min in the dark to lyse. After lysis, samples are centrifuged at 500×g for 5 minutes at RT to enable supernatant decanting. Remaining cells were washed with 1 mL of PBS-0.5% BSA and centrifuged at 500×g for 5 minutes at 4° C. Supernatant was decanted and cells were stained with leukocyte markers (human and mouse CD45 antibodies; BD347464, BD557659) to confirm human cell engraftment. Mice having less than one percent, or greater than ten percent, human CD45 positive cells were excluded from the subsequent study. Remaining mice were then randomized into treatment groups based on percentage of human cell engraftment. Each treatment group included 10-11 mice.
(§6) Compound I-73 was dissolved in a 5% Cremophor RH40, 20% hydroxylpropyl-β-cyclodextrin solution. Hydroxyurea was solubilized in PBS. Formulations were prepared fresh daily. Commencing on day 84 post human cell engraftment, mice were treated by oral gavage with either I-73, hydroxyurea or their respective vehicles, for a period of three weeks using either once daily (QD) or twice daily (BID) dosing regimens. Mice were monitored daily for body weight and condition. […]

[2] = tested on: fetal hemoglobin gene expression (HBG1) in human erythroid progenitor cells; assay: Humanized mouse model: fetal hemoglobin mRNA (HBG1, HBB) in bone marrow by Nanostring; assay type: in vivo, NBSGW mice reconstituted with human CD34+ cells; conditions: for HBG1 expression compared to vehicle (HBG1 alone or HBG1 to total beta hemoglobin mRNA): FIGS. 11A-11C, various doses and treatment regimes
Text: as §1, §2, §3, §4, §5, §6

[3] = tested on: HbF in GlyA+ human erythroid precursor cells; assay: Humanized mouse model: F-cells (GlyA+ cells with detectable HbF) by flow cytometry; assay type: in vivo, NBSGW mice reconstituted with human CD34+ cells; conditions: FIG. 10A, all treatment groups
Procedure: FIG. 5 is FACS results showing the percentage of GlyA+ cells which also have detectable HbF protein levels in them (called F-cells).
as §3
as §4, with “Cells and buffer were centrifuged at 300G for 8 minutes, and the supernatants were aspirated.” left out, “The cell concentration was adjusted to 3×10^6 cells/ml. For each mouse, 300 thousand cells in 0.1 ml were injected into the tail vein with a 25-gauge needle.” left out
Compound I-73 was dissolved in a 5% Cremophor RH40, 20% hydroxylpropyl-β-cyclodextrin solution. […] Mice were monitored daily for body weight and condition. […]
After 21 days of dosing, all mice were euthanized and prepared for bone marrow collection. […] Extracted cells were counted and aliquoted to prepare for analysis. […]

[4] = Preliminary pharmacokinetic studies (serum exposure); assay type: in vivo, wild-type mice
[5] = humanized mouse model, human erythroid progenitor cells, dose not given at this place

Compound: CCN1C(=O)[C@@H](NC(=O)c2cccc(C(F)(F)F)c2)[C@@H](C2CC2)c2c(C(=O)N3[C@H](C#N)C[C@H]4C[C@H]43)nn(C3CCOCC3)c21 [Compound I-256, N-((4S,5S)-3-((1R,3S,5R)-3-cyano-2-azabicyclo[3.1.0]hexane-2-carbonyl)-4-cyclopropyl-7-ethyl-6-oxo-1-(tetrahydro-2H-pyran-4-yl)-4,5,6,7-tetrahydro-1H-pyrazolo[3,4-b]pyridin-5-yl)-3-(trifluoromethyl)benzamide]
- HbF protein levels (AlphaLISA) normalized for % GlyA+ cells [1]: increased HbF protein levels
- HBG1 expression compared to vehicle (HBG1 alone or HBG1 to total beta hemoglobin mRNA) [2]: increased HBG1 expression compared to vehicle
- percentage of HbF expression in GlyA+ cells (F-cell analysis) [3]: increased percentage of HbF expression in GlyA+ cells

Compound: CCN1C(=O)[C@@H](NC(=O)c2cccc(C(F)(F)F)c2)[C@@H](c2ccc(F)cc2)c2c([C@@H](C)NC#N)nn(-c3ccccc3)c21 [Compound I-73, N-((4S,5S)-3-((R)-1-cyanamidoethyl)-7-ethyl-4-(4-fluorophenyl)-6-oxo-1-phenyl-4,5,6,7-tetrahydro-1H-pyrazolo[3,4-b]pyridin-5-yl)-3-(trifluoromethyl)benzamide]
- serum concentrations relative to that required to inhibit DCN-1 ([4]; dosing at 25 and 100 mg/kg): equivalent to or greater than that required to inhibit DCN-1
- in vivo serum exposure levels ([4]; wild-type mice): predicted to be sufficient for fetal hemoglobin induction
- HbF protein levels in bone marrow (AlphaLISA) compared to vehicle-treated mice ([1]; 25 and 100 mg/kg bid, oral gavage, three weeks, normalized to % GlyA+ cells (FIG. 1A)): significantly increases
- HbF protein levels (AlphaLISA) normalized for % GlyA+ cells [1]: increased HbF protein levels
- difference in HbF protein levels between the 25 and the 100 mg/kg doses ([1]; bid, oral gavage, three weeks): no significant difference
- induction of fetal hemoglobin protein (HbF) [1, 5]: an induction of both HBG1 mRNA and HbF protein was observed
- HBG1 mRNA transcript levels (Nanostring) ([2]; 25 and 100 mg/kg bid, oral gavage, three weeks (FIG. 1B)): enhanced transcript levels
- ratios of HBG1 to HBB mRNA compared with hydroxyurea (50 mg/kg bid) ([2]; 25 and 100 mg/kg bid, oral gavage, three weeks (FIG. 1C)): significantly greater ratios
- HBG1 expression compared to vehicle (HBG1 alone or HBG1 to total beta hemoglobin mRNA) [2]: increased HBG1 expression compared to vehicle
- induction of fetal hemoglobin mRNA (HBG1) [2, 5]: an induction of both HBG1 mRNA and HbF protein was observed
- ratio of fetal HBG1 hemoglobin mRNA to adult hemoglobin mRNA (HBB), compared with HU ([2]; humanized mouse model, dose not given at this place): significantly greater than HU standard of care
- percentage of HbF expression in GlyA+ cells (F-cell analysis) [3]: increased percentage of HbF expression in GlyA+ cells
